For data set [1], the system named is VLPs coated with Marburg virus envelope protein. Format: biochemical, Ebola virus.
Data set [2] has as its system lentiviruses coding EGFP and coated with FuG-C hybrid envelope protein. Format: cell-based.
For data set [3], the system named is VLPs coated with VSV envelope protein. Format: biochemical, Ebola virus.
Another data set deals with human erythrocytes. Conditions: pH 7.4.
For the next data set, the system named is equine erythrocytes. Conditions: pH 7.4.

Take GALA: the “virolytic activity on enzymatic VLPs” value in data set [1] and in data set [3] was “moderate virolytic activity” in each case. Besides, in data set [2], the “concentrations that effectively block the virus entry” value was “above 5 μM”. Besides, the “inhibitory effect on lentivirus infectivity” value (“inhibitory effect” for short) in data set [2] was “remarkably potent inhibitor”.

In the case of Hecate, in data set [2], the “inhibitory effect” value is recorded as “substantial antiviral effect”. For the same substance, the hemolytic activity entry in the data set with human erythrocytes was “moderately lyse human erythrocytes”; in the data set on equine erythrocytes, “virtually no effect on equine RBCs”.

For WEAKLAKALAKALAKHLAKALAKALKACEA, the “amount of produced GFP (GFP fluorescence of cell lysates)” value in data set [2] is recorded as “might slightly increase the amount of produced GFP but the increase is not significant”. Moreover, the “inhibitory effect” value in data set [2] is on record as “substantial antiviral effect”. The hemolytic activity entry in the data set with human erythrocytes and in the data set on equine erythrocytes was “moderate hemolytic activity” each time.
